Converted amounts (≈) assume the structure as drawn.
System: MRSA
Experiment: MIC by micro-dilution method, MRSA isolates
Assay type: cell-based, Staphylococcus aureus
Conditions: compounds of Formula XVI; for MIC MRSA 7662: MRSA isolate 7662; for MIC MRSA 33591: MRSA isolate 33591
Experimental: Susceptibility tests can be used to quantitatively measure the in vitro activity of an antimicrobial agent against a given bacterial isolate. Compounds are tested for in vitro antibacterial activity by a micro-dilution method. Minimal Inhibitory Concentration (MIC) is determined in 96 well microtiter plates utilizing the appropriate broth medium for the observed bacterial isolates. […] The diluted compounds (2 μl/well) are then transferred into sterile, uninoculated medium (0.2 mL) by use of a 96 fixed tip-pipetting station. The inoculum for each bacterial strain is standardized to approximately 5×10^5 CFU/mL by optical comparison to a 0.5 McFarland turbidity standard. The plates are inoculated with 10 μl/well of adjusted bacterial inoculum. The 96 well plates are covered and incubated at 35+/−2° C. for 24 hours in ambient air environment. Following incubation, plate wells are visually examined by Optical Density measurement for the presence of growth (turbidity). The lowest concentration of an antimicrobial agent at which no visible growth occurs is defined as the MIC.
All in vitro testing follows the guidelines described in the Approved Standards M7-A7 protocol, published by the Clinical Laboratory Standards Institute (CLSI).

SMILES | MIC MRSA 7662 [µg/mL] | MIC MRSA 33591 [µg/mL]
CCC(=O)N=C1[C@H](C)C[C@@]2(C)OC/C(=N/OCc3ccc(-c4csc(N)n4)cc3)CO[C@H]([C@H]1C)[C@](C)(O)[C@@H](CC)OC(=O)[C@@](C)(F)C(=O)[C@H](C)[C@H]2O[C@@H]1O[C@H](C)C[C@H](N(C)C)[C@H]1O [Example 122] | 4.00 (≈ 4.42 µM) | 4.00 (≈ 4.42 µM)
CCC(=O)N=C1[C@H](C)C[C@@]2(C)OC/C(=N/OCc3cnc(-c4nc(N)cs4)cn3)CO[C@H]([C@H]1C)[C@](C)(O)[C@@H](CC)OC(=O)[C@@](C)(F)C(=O)[C@H](C)[C@H]2O[C@@H]1O[C@H](C)C[C@H](N(C)C)[C@H]1O [Example 133] | 2.00 (≈ 2.21 µM) | 4.00 (≈ 4.41 µM)
CCC1OC(=O)C(C)(F)C(=O)C(C)C(OC2OC(C)CC(N(C)C)C2O)C2(C)CC(C)C(=NC(=O)C(C)C)C(C)C(OCC(=NOCc3ccc(-c4cccc(N)n4)cn3)CO2)C1(C)O (stereo not shown) [Example 80] | 4 (≈ 4.38 µM) | 4 (≈ 4.38 µM)
CCC1OC(=O)C(C)(F)C(=O)C(C)C(OC2OC(C)CC(N(C)C)C2O)C2(C)CC(C)C(=NC(C)=O)C(C)C(OCC(=NOCc3ccc(-n4ccc(N)n4)c(F)c3)CO2)C1(C)O (stereo not shown) [Example 95] | 8 (≈ 8.98 µM) | 8 (≈ 8.98 µM)
CCC(=O)N=C1C(C)CC2(C)OCC(=NOCc3ccc(-c4cccc(N)n4)cn3)COC(C1C)C(C)(O)C(CC)OC(=O)C(C)(F)C(=O)C(C)C2OC1OC(C)CC(N(C)C)C1O (stereo not shown) [Example 75] | 4 (≈ 4.45 µM) | 4 (≈ 4.45 µM)
CCC(=O)N=C1[C@H](C)C[C@@]2(C)OC/C(=N/OCc3ccc(-c4nc(N)cs4)cc3)CO[C@H]([C@H]1C)[C@](C)(O)[C@@H](CC)OC(=O)[C@@](C)(F)C(=O)[C@H](C)[C@H]2O[C@@H]1O[C@H](C)C[C@H](N(C)C)[C@H]1O [Example 120] | 4 (≈ 4.42 µM) | 4 (≈ 4.42 µM)
CCC(=O)N=C1[C@H](C)C[C@@]2(C)OC/C(=N/OCc3ccc(-c4nsc(N)n4)cc3)CO[C@H]([C@H]1C)[C@](C)(O)[C@@H](CC)OC(=O)[C@@](C)(F)C(=O)[C@H](C)[C@H]2O[C@@H]1O[C@H](C)C[C@H](N(C)C)[C@H]1O [Example 127] | 2.00 (≈ 2.21 µM) | 4.00 (≈ 4.42 µM)
CC[C@H]1OC(=O)[C@@](C)(F)C(=O)[C@H](C)[C@@H](O[C@@H]2O[C@H](C)C[C@H](N(C)C)[C@H]2O)[C@@]2(C)C[C@@H](C)C(=NC(C)=O)[C@H](C)[C@@H](OC/C(=N\OCc3cnc(-c4cccc(N)n4)cn3)CO2)[C@]1(C)O [Example 103] | 8 (≈ 9.03 µM) | 8 (≈ 9.03 µM)
CCC(=O)N=C1[C@H](C)C[C@@]2(C)OC/C(=N/OCc3ccc(-c4nc(N)cs4)cn3)CO[C@H]([C@H]1C)[C@](C)(O)[C@@H](CC)OC(=O)[C@H](C)C(=O)[C@H](C)[C@H]2O[C@@H]1O[C@H](C)C[C@H](N(C)C)[C@H]1O [Example 119] | 4 (≈ 4.51 µM) | 8 (≈ 9.02 µM)
[2H]C([2H])([2H])C([2H])([2H])C(=O)N=C1[C@H](C)C[C@@]2(C)OC/C(=N/OCc3ccc(-c4nc(N)cs4)cn3)CO[C@H]([C@H]1C)[C@](C)(O)[C@@H](CC)OC(=O)[C@@](C)(F)C(=O)[C@H](C)[C@H]2O[C@@H]1O[C@H](C)C[C@H](N(C)C)[C@H]1O [Example 135] | 2.00 (≈ 2.2 µM) | 2.00 (≈ 2.2 µM)
CC[C@H]1OC(=O)[C@@](C)(F)C(=O)[C@H](C)[C@@H](O[C@@H]2O[C@H](C)C[C@H](N(C)C)[C@H]2O)[C@@]2(C)C[C@@H](C)C(=NC(=O)C(C)C)[C@H](C)[C@@H](OC/C(=N\OCc3ncc(-c4cccc(N)n4)s3)CO2)[C@]1(C)O [Example 111] | 2 (≈ 2.18 µM) | 2 (≈ 2.18 µM)
CC[C@H]1OC(=O)[C@@](C)(F)C(=O)[C@H](C)[C@@H](O[C@@H]2O[C@H](C)C[C@H](N(C)C)[C@H]2O)[C@@]2(C)C[C@@H](C)C(=NC(C)=O)[C@H](C)[C@@H](OC/C(=N\OCc3ccc(-n4ccc(N)n4)cc3OC)CO2)[C@]1(C)O [Example 99] | 8 (≈ 8.86 µM) | 8 (≈ 8.86 µM)
CCC(=O)N=C1[C@H](C)C[C@@]2(C)OC/C(=N/OCc3ccc(-c4nsc(N)n4)cn3)CO[C@H]([C@H]1C)[C@](C)(O)[C@@H](CC)OC(=O)[C@@](C)(F)C(=O)[C@H](C)[C@H]2O[C@@H]1O[C@H](C)C[C@H](N(C)C)[C@H]1O [Example 123] | 4 (≈ 4.41 µM) | 4 (≈ 4.41 µM)
CC[C@H]1OC(=O)[C@@](C)(F)C(=O)[C@H](C)[C@@H](O[C@@H]2O[C@H](C)C[C@H](N(C)C)[C@H]2O)[C@@]2(C)C[C@@H](C)C(=NC(C)=O)[C@H](C)[C@@H](OC/C(=N\OCc3ccc(-c4nsc(N)n4)cn3)CO2)[C@]1(C)O [Example 107] | 8 (≈ 8.97 µM) | 16 (≈ 17.9 µM)
CC[C@H]1OC(=O)[C@@](C)(F)C(=O)[C@H](C)[C@@H](O[C@@H]2O[C@H](C)C[C@H](N(C)C)[C@H]2O)[C@@]2(C)C[C@@H](C)C(=NC(=O)C(C)C)[C@H](C)[C@@H](OC/C(=N\OCc3ccc(-c4nc(N)cs4)cn3)CO2)[C@]1(C)O [Example 109] | 2 (≈ 2.18 µM) | 2 (≈ 2.18 µM)
CCC(=O)N=C1[C@H](C)C[C@@]2(C)OC/C(=N/OCc3ncc(-c4cccc(N)n4)o3)CO[C@H]([C@H]1C)[C@](C)(O)[C@@H](CC)OC(=O)[C@@](C)(F)C(=O)[C@H](C)[C@H]2O[C@@H]1O[C@H](C)C[C@H](N(C)C)[C@H]1O [Example 134] | 4.00 (≈ 4.5 µM) | 8.00 (≈ 9 µM)
CC[C@H]1OC(=O)[C@@](C)(F)C(=O)[C@H](C)[C@@H](O[C@@H]2O[C@H](C)C[C@H](N(C)C)[C@H]2O)[C@@]2(C)C[C@@H](C)C(=NC(C)=O)[C@H](C)[C@@H](OC/C(=N\OCc3ccc(-c4nccc(N)n4)cc3)CO2)[C@]1(C)O [Example 105] | 8 (≈ 9.04 µM) | 8 (≈ 9.04 µM)
CCC(=O)N=C1C(C)CC2(C)OCC(=NOCc3ccc(-n4ccc(N)n4)nc3)COC(C1C)C(C)(O)C(CC)OC(=O)C(C)(F)C(=O)C(C)C2OC1OC(C)CC(N(C)C)C1O (stereo not shown) [Example 79] | 2 (≈ 2.25 µM) | 4 (≈ 4.5 µM)
CC[C@H]1OC(=O)[C@@](C)(F)C(=O)[C@H](C)[C@@H](O[C@@H]2O[C@H](C)C[C@H](N(C)C)[C@H]2O)[C@@]2(C)C[C@@H](C)C(=NC(C)=O)[C@H](C)[C@@H](OC/C(=N\OCc3csc(-c4cccc(N)n4)n3)CO2)[C@]1(C)O [Example 136] | 2.00 (≈ 2.24 µM) | 2.00 (≈ 2.24 µM)
CCC1OC(=O)C(C)(F)C(=O)C(C)C(OC2OC(C)CC(N(C)C)C2O)C2(C)CC(C)C(=NC(C)=O)C(C)C(OCC(=NOCc3ccc(-n4ccc(N)n4)cc3F)CO2)C1(C)O (stereo not shown) [Example 85] | 4 (≈ 4.49 µM) | 8 (≈ 8.98 µM)
CCC1OC(=O)C(C)(F)C(=O)C(C)C(OC2OC(C)CC(N(C)C)C2O)C2(C)CC(C)C(=NC(C)=O)C(C)C(OCC(=NOCc3ccc(-n4ccc(N)n4)cn3)CO2)C1(C)O (stereo not shown) [Example 82] | 4 (≈ 4.58 µM) | 8 (≈ 9.15 µM)
CC[C@H]1OC(=O)[C@@](C)(F)C(=O)[C@H](C)[C@@H](O[C@@H]2O[C@H](C)C[C@H](N(C)C)[C@H]2O)[C@@]2(C)C[C@@H](C)C(=NC(=O)C(C)C)[C@H](C)[C@@H](OC/C(=N\OCc3ccc(-c4nccc(N)n4)cn3)CO2)[C@]1(C)O [Example 114] | 4 (≈ 4.38 µM) | 8 (≈ 8.75 µM)
CC[C@H]1OC(=O)[C@@](C)(F)C(=O)[C@H](C)[C@@H](O[C@@H]2O[C@H](C)C[C@H](N(C)C)[C@H]2O)[C@@]2(C)C[C@@H](C)C(=NC(C)=O)[C@H](C)[C@@H](OC/C(=N\OCc3coc(-c4cccc(N)n4)n3)CO2)[C@]1(C)O [Example 126] | 4 (≈ 4.57 µM) | 8 (≈ 9.14 µM)
CCC(=O)N=C1[C@H](C)C[C@@]2(C)OC/C(=N/OCc3cnc(-c4nccc(N)n4)s3)CO[C@H]([C@H]1C)[C@](C)(O)[C@@H](CC)OC(=O)[C@@](C)(F)C(=O)[C@H](C)[C@H]2O[C@@H]1O[C@H](C)C[C@H](N(C)C)[C@H]1O [Example 131] | 4.00 (≈ 4.41 µM) | 8.00 (≈ 8.83 µM)
CC[C@H]1OC(=O)[C@@](C)(F)C(=O)[C@H](C)[C@@H](O[C@@H]2O[C@H](C)C[C@H](N(C)C)[C@H]2O)[C@@]2(C)C[C@@H](C)C(=NC(=O)C(C)C)[C@H](C)[C@@H](OC/C(=N\OCc3csc(-c4cccc(N)n4)n3)CO2)[C@]1(C)O [Example 137] | 1.00 (≈ 1.09 µM) | 2.00 (≈ 2.18 µM)
CCC1OC(=O)C(C)C(=O)C(C)C(OC2OC(C)CC(N(C)C)C2O)C2(C)CC(C)C(=NC(C)=O)C(C)C(OCC(=NOCc3ccc(-n4ccc(N)n4)cc3Cl)CO2)C1(C)O (stereo not shown) [Example 88] | 8 (≈ 8.99 µM) | 8 (≈ 8.99 µM)
